Test results as given in PubChem BioAssay AID2060353 (Molecular Pharmacology Branch, DTP, NCI, 2025).

System: 521955-158-R2-J5-PDC spheroids with stroma, growth inhibition
Test: Anticancer human tumor 521955-158-R2-J5-PDC patient-derived pancreatic carcinoma cell line growth inhibition [TAK]
Settings: for IC50: curve of first compound; for viability, T/C: stronger effect = lower value
Method in brief: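 Spheroids of 60% malignant cells, 25% HUVEC and 15% hMSC were exposed to targeted agents combined with TAK-243 or ipatasertib. Concentrations started at or near clinical Cmax (10 microM if unknown) and descended in half-log steps.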

[1] = second compound 0.3 µM, first compound 0.0316 µM
[2] = second compound 0.3 µM, first compound 0.1 µM
[3] = second compound 0.3 µM, first compound 0.316 µM
[4] = second compound 0.3 µM, first compound 1 µM
[5] = second compound 0.3 µM, first compound 3.16 µM
[6] = second compound 0.3 µM, first compound 10 µM
[7] = second compound 0.949 µM, first compound 0.0316 µM
[8] = second compound 0.949 µM, first compound 0.1 µM
[9] = second compound 0.949 µM, first compound 0.316 µM
[10] = second compound 0.949 µM, first compound 1 µM
[11] = second compound 0.949 µM, first compound 3.16 µM
[12] = second compound 0.949 µM, first compound 10 µM
[13] = second compound 3 µM, first compound 0.0316 µM
[14] = second compound 3 µM, first compound 0.1 µM
[15] = second compound 3 µM, first compound 0.316 µM
[16] = second compound 3 µM, first compound 1 µM
[17] = second compound 3 µM, first compound 3.16 µM
[18] = second compound 3 µM, first compound 10 µM
[19] = second compound 9.49 µM, first compound 0.0316 µM
[20] = second compound 9.49 µM, first compound 0.1 µM
[21] = second compound 9.49 µM, first compound 0.316 µM
[22] = second compound 9.49 µM, first compound 1 µM
[23] = second compound 9.49 µM, first compound 3.16 µM
[24] = second compound 9.49 µM, first compound 10 µM
[25] = second compound 30 µM, first compound 0.0316 µM
[26] = second compound 30 µM, first compound 0.1 µM
[27] = second compound 30 µM, first compound 0.316 µM
[28] = second compound 30 µM, first compound 1 µM
[29] = second compound 30 µM, first compound 3.16 µM
[30] = second compound 30 µM, first compound 10 µM
[31] = second compound 0.3 µM, first compound 0.000316 µM
[32] = second compound 0.3 µM, first compound 0.001 µM
[33] = second compound 0.3 µM, first compound 0.00316 µM
[34] = second compound 0.3 µM, first compound 0.01 µM
[35] = second compound 0.949 µM, first compound 0.000316 µM
[36] = second compound 0.949 µM, first compound 0.001 µM
[37] = second compound 0.949 µM, first compound 0.00316 µM
[38] = second compound 0.949 µM, first compound 0.01 µM
[39] = second compound 3 µM, first compound 0.000316 µM
[40] = second compound 3 µM, first compound 0.001 µM
[41] = second compound 3 µM, first compound 0.00316 µM
[42] = second compound 3 µM, first compound 0.01 µM
[43] = second compound 9.49 µM, first compound 0.000316 µM
[44] = second compound 9.49 µM, first compound 0.001 µM
[45] = second compound 9.49 µM, first compound 0.00316 µM
[46] = second compound 9.49 µM, first compound 0.01 µM
[47] = second compound 30 µM, first compound 0.000316 µM
[48] = second compound 30 µM, first compound 0.001 µM
[49] = second compound 30 µM, first compound 0.00316 µM
[50] = second compound 30 µM, first compound 0.01 µM
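Note: spheroids exposed to drugs for seven days before readout.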
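Throughout, for viability, T/C: 100% = DMSO vehicle control viability.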

CC(C)(C)c1nc(-c2cccc(NS(=O)(=O)c3c(F)cccc3F)c2F)c(-c2ccnc(N)n2)s1 + CC(C)NCC(C(=O)N1CCN(c2ncnc3c2C(C)CC3O)CC1)c1ccc(Cl)cc1
IC50 (second compound 0.3 µM): > 10000 nM | IC50 (second compound 0.949 µM): 9730 nM | IC50 (second compound 3 µM): 6270 nM | IC50 (second compound 9.49 µM): 4960 nM | IC50 (second compound 30 µM): 1070 nM | viability, T/C [1]: 115% | viability, T/C [2]: 135% | viability, T/C [3]: 135% | viability, T/C [4]: 134% | viability, T/C [5]: 96.8% | viability, T/C [6]: 60.3% | viability, T/C [7]: 116% | viability, T/C [8]: 117% | viability, T/C [9]: 109% | viability, T/C [10]: 100% | viability, T/C [11]: 79.5% | viability, T/C [12]: 49.1% | viability, T/C [13]: 89.8% | viability, T/C [14]: 93.8% | viability, T/C [15]: 72.2% | viability, T/C [16]: 92.1% | viability, T/C [17]: 75.4% | viability, T/C [18]: 32.8% | viability, T/C [19]: 92.3% | viability, T/C [20]: 83.9% | viability, T/C [21]: 65.1% | viability, T/C [22]: 66.2% | viability, T/C [23]: 71.4% | viability, T/C [24]: 33.4% | viability, T/C [25]: 59.7% | viability, T/C [26]: 56.7% | viability, T/C [27]: 50.9% | viability, T/C [28]: 51.2% | viability, T/C [29]: 44.8% | viability, T/C [30]: 28.7%

CC(C)CC(NC(=O)CNC(=O)c1cc(Cl)ccc1Cl)B1OC(=O)CC(CC(=O)O)(C(=O)O)O1 (stereo not given) + CC(C)NCC(C(=O)N1CCN(c2ncnc3c2C(C)CC3O)CC1)c1ccc(Cl)cc1
IC50 (second compound 0.3 µM): 39 nM | IC50 (second compound 0.949 µM): 30 nM | IC50 (second compound 3 µM): 26.8 nM | IC50 (second compound 9.49 µM): 25.7 nM | IC50 (second compound 30 µM): 15.2 nM | viability, T/C [31]: 129% | viability, T/C [32]: 114% | viability, T/C [33]: 104% | viability, T/C [34]: 116% | viability, T/C [1]: 59% | viability, T/C [2]: 8.82% | viability, T/C [35]: 85.2% | viability, T/C [36]: 98.6% | viability, T/C [37]: 87.6% | viability, T/C [38]: 94.2% | viability, T/C [7]: 48.1% | viability, T/C [8]: 6.65% | viability, T/C [39]: 77.8% | viability, T/C [40]: 78% | viability, T/C [41]: 87% | viability, T/C [42]: 89.6% | viability, T/C [13]: 44.4% | viability, T/C [14]: 6.08% | viability, T/C [43]: 123% | viability, T/C [44]: 103% | viability, T/C [45]: 115% | viability, T/C [46]: 122% | viability, T/C [19]: 35.7% | viability, T/C [20]: 4.11% | viability, T/C [47]: 69.3% | viability, T/C [48]: 69.1% | viability, T/C [49]: 72.4% | viability, T/C [50]: 66.4% | viability, T/C [25]: 21.3% | viability, T/C [26]: 2.31%

CC(C)n1nc(-c2ccc3oc(N)nc3c2)c2c(N)ncnc21 + CC(C)NCC(C(=O)N1CCN(c2ncnc3c2C(C)CC3O)CC1)c1ccc(Cl)cc1
IC50 (second compound 0.3 µM): 32 nM | IC50 (second compound 0.949 µM): 34.9 nM | IC50 (second compound 3 µM): 17.7 nM | IC50 (second compound 9.49 µM): 8.6 nM | IC50 (second compound 30 µM): 0.516 nM | viability, T/C [31]: 106% | viability, T/C [32]: 96.9% | viability, T/C [33]: 85% | viability, T/C [34]: 60.4% | viability, T/C [1]: 54.8% | viability, T/C [2]: 36.5% | viability, T/C [35]: 78.3% | viability, T/C [36]: 69.3% | viability, T/C [37]: 65.7% | viability, T/C [38]: 66.9% | viability, T/C [7]: 49.6% | viability, T/C [8]: 36% | viability, T/C [39]: 83.5% | viability, T/C [40]: 77.8% | viability, T/C [41]: 84.8% | viability, T/C [42]: 62.3% | viability, T/C [13]: 37.6% | viability, T/C [14]: 28.2% | viability, T/C [43]: 110% | viability, T/C [44]: 102% | viability, T/C [45]: 79.2% | viability, T/C [46]: 44.2% | viability, T/C [19]: 29.1% | viability, T/C [20]: 19.3% | viability, T/C [47]: 52.1% | viability, T/C [48]: 47.1% | viability, T/C [49]: 37.5% | viability, T/C [50]: 17.1% | viability, T/C [25]: 10.4% | viability, T/C [26]: 9.55%

CCCS(=O)(=O)Nc1ccc(F)c(C(=O)c2c[nH]c3ncc(-c4ccc(Cl)cc4)cc23)c1F + CC(C)NCC(C(=O)N1CCN(c2ncnc3c2C(C)CC3O)CC1)c1ccc(Cl)cc1
IC50 (second compound 0.3 µM): > 100000 nM | IC50 (second compound 0.949 µM): > 100000 nM | IC50 (second compound 3 µM): 15900 nM | IC50 (second compound 9.49 µM): 6340 nM | IC50 (second compound 30 µM): 1140 nM | viability, T/C [3]: 107% | viability, T/C [4]: 134% | viability, T/C [5]: 108% | viability, T/C [6]: 165% | viability, T/C (second compound 0.3 µM, first compound 31.6 µM): 18.9% | viability, T/C (second compound 0.3 µM, first compound 100 µM): 122% | viability, T/C [9]: 108% | viability, T/C [10]: 123% | viability, T/C [11]: 107% | viability, T/C [12]: 103% | viability, T/C (second compound 0.949 µM, first compound 31.6 µM): 22.2% | viability, T/C (second compound 0.949 µM, first compound 100 µM): 111% | viability, T/C [15]: 100% | viability, T/C [16]: 99.4% | viability, T/C [17]: 99.2% | viability, T/C [18]: 70.1% | viability, T/C (second compound 3 µM, first compound 31.6 µM): 19.9% | viability, T/C (second compound 3 µM, first compound 100 µM): 12.1% | viability, T/C [21]: 84.8% | viability, T/C [22]: 89.8% | viability, T/C [23]: 69.9% | viability, T/C [24]: 36.1% | viability, T/C (second compound 9.49 µM, first compound 31.6 µM): 14.2% | viability, T/C (second compound 9.49 µM, first compound 100 µM): 6.73% | viability, T/C [27]: 51.7% | viability, T/C [28]: 50.9% | viability, T/C [29]: 40.4% | viability, T/C [30]: 5.79% | viability, T/C (second compound 30 µM, first compound 31.6 µM): 4.82% | viability, T/C (second compound 30 µM, first compound 100 µM): 4.7%
